{
  "source": "patent US5202417A",
  "about": "“60-amino-acid polypeptide” (Takeda Chemical Industries, Ltd., priority 1989, dated 1993)",
  "key": {"anti-PS2 antibodies": {"system": "anti-PS2 antibodies", "assay": "immunoreactivity to anti-PS2 antibodies", "assay_type": "binding"}, "[1]": {"assay": "isoelectric point of the purified polypeptide", "assay_type": "physicochemical"}, "[2]": {"system": "IgG fraction containing anti-hEGF antibody", "assay": "enzyme immuno assay (EIA) for human EGF, plate sensitized with IgG fraction containing anti-hEGF antibody", "assay_type": "binding, rabbit", "details": "culture solutions of MCF7, MKN-45 and KATO-III; different from EGF", "excerpt": "In order to examine the relationship between the MCF7 cells thus secreting various growth factors and epidermal growth factor (hereinafter referred to as EGF) which is a kind of growth factor, we established an enzyme immuno assay (hereinafter referred to as EIA) which can assay human EGF, and tried to determine it in the culture solutions of MCF7 and human gastric cancer cells MKN-45 and KATO-III. […] It is conceivable that this substance was detected because another antibody was present in the enzyme immuno assay in addition to an antibody against EGF.\nAn assay system used for detecting the polypeptide of the present invention was prepared in the following manner.\n200 μg/ml of an IgG fraction (purified from rabbit serum) containing anti-hEGF antibody was added to 50 mM of Tris-HCl (pH 8.0), and the mixture was poured to a microplate having 96 wells (Sumitomo Bakelite Co.) in an amount of 100 μl/well. After the reaction was conducted at 37° C. for 3 hours, the solution was discarded. Buffer A was further added thereto and blocking was carried out. […]\nA plate was washed once with 200 μl/well of buffer A just prior to the use thereof. […] The resultant product was transferred to a Dynamic™ microfluor (for fluorescent enhancer), and the fluorescence was measured with an immunoreader (365 nm excitation, 415 nm fluorescence measurement). […]"}},
  "data": [
    {"substance": "immunoreactive polypeptide: 60-amino-acid polypeptide, N-terminus EAQ, secreted by cancer cells MCF-7, MKN-45 or KATO-III; part of the PS2 precursor protein (EAQTETCTVAPRERQNCGFPGVTPSQCANKGCCFDDTVRGVPWCFYPNTIDVPPEEECEF; UniProt P04155 25-84, looked up)", "values": [
      {"measurement": "immunoreactivity to anti-PS2 antibodies", "setting": "anti-PS2 antibodies", "value": "immunoreactive to anti-PS2 antibodies"},
      {"measurement": "isoelectric point", "setting": "[1]", "value": 4.3},
      {"measurement": "immunoreactivity in the EIA", "setting": "[2]", "value": "immunoreactive to the EIA"}
    ]}
  ]
}
